Measured values as given in article PMC8414802, “Hair Cell Generation in Cochlear Culture Models Mediated by Novel γ-Secretase Inhibitors” (Frontiers in Cell and Developmental Biology, 2021).

Tested on: Atoh1-GFP positive hair cells and Sox2+ supporting cells in whole cochlea
Test: Ex vivo whole cochlea culture, drug applied at the round window niche
Type: cell-based, mouse
Experimental: To culture the intact cochlea of P0–P1 mice, the entire otic capsule (cochlea and semicircular canals) was carefully dissected. Connective tissues and nerves were removed to clear the round window niche and the capsule was positioned with the round window facing up in a sterile 35 mm dish. A surgical sponge was employed to blot dry the interior of the round window niche, which was then filled with 2 μl of the formulated drug and applied with a small pipette tip. Following 2 h of drug treatment at 37°C with 5% CO2, the tissue was transferred to a 50 ml conical tube containing 10 ml medium (DMEM, 5%FBS, 5% horse serum and ampicillin) and the tube was sparged with 95% O2/5% CO2 for 5–10 min and incubated for 2 days at 37°C, rotating on a roller/rocker (SCILOGEX MX-T6-S Analog Tube Roller) at 15–17 rpm.
For whole-mount immunohistochemistry, whole cochleae were fixed (4% PFA) ON at 4°C, then incubated in primary antibodies (72 h, rocking at 4°C), goat anti-GFP polyclonal Ab (AbCam, ab6673) and rabbit anti-Sox2 polyclonal IgG (GenTex, GTX101506) in 4% normal donkey serum. Following extended washes (over 24 h), cochlea were incubated for 24 h in secondary antibodies donkey anti-goat Alexa 488 (Thermo Fisher, A11055) and donkey anti-rabbit Alexa 647 (Thermo Fisher, A31573) and extensively washed. The intact OC were then microdissected from cochleae and mounted on a coverslip for confocal imaging. A LSM 510 Confocal Microscope (Zeiss) utilizing 63X Zeiss Plan-APOCHROMAT DIC oil, 1.4NA and Zen 2009 LSM imaging software was used to optically scan mid-apex regions of OCs. Cellular quantification and image analysis computation were performed with Imaris 8.2.1 software (Bitplane).
To assess the permeability of the compounds across the round window membrane, a novel ex vivo model was devised to compare drug entry, after delivery to the exterior of the cochlear capsule, to resemble middle ear application. Specifically, CPD3 application was tested in organotypic culture of the entire otic capsule (Figure 4). CPD3, formulated at two different concentrations (1 and 7.2 mM) in 70% PEG400 or 10% POX338 (POX), was applied at the round window niche. Drug formulations were allowed to absorb briefly into the cochlea prior to the 48 h culture. […] For the POX338 formulation, we further characterized the number of Sox2+ supporting cells in the sensory epithelium. […] Also in this model, we observed a trend for new hair cells to be greater toward the apex than the base in agreement with the results obtained with the OC organotypic culture and indicated GSI exposure was throughout the entire length of the organ of Corti length during the culture period.
FIGURE 4 Hair cell quantification in whole cochlea culture. (A) Hair cell counts from whole cochea culture with directly applied CPD3 in 70% PEG400 (1 mM or 7.2 mM). Atoh1-GFP positive hair cells in different organ of Corti regions (B, base; MB, mid-base; MA, mid-apex; A, apex) (n = 3 independent experiments). (B) Hair cell counts from whole cochea culture with directly applied CPD3 in 10% POX338 (1 mM;, or 7.2 mM). Atoh1-GFP positive hair cells in different organ of Corti regions (B, base; MB, mid-base; MA, mid-apex; A, apex; n = 3 independent experiments). (C) Immunostained inner ear sensory epithelia following whole cochlea culture with direct application of CPD3 (1 and 7.2 mM; Vehicle, 10% POX338). 3D projections of confocal stacks at mid-base region of organ of Corti, Atoh1-GFP (hair cells, green) and Sox2 (supporting cells, red). (D) Quantification of Atoh1-GFP-positive (green dots) and Sox2-positive cells (red dots) after direct application of CPD3 (1 or 7.2 mM), or vehicle formulated in 10% POX338. (*p < 0.05; ***p < 0.001, one-way ANOVA with multiple comparison; n = 12; 3 independent experiments; all regions-base to apex).

COc1ccc2c(c1)N1CCC(C)(C)C1=CC(=O)[C@H]2NC(=O)[C@H](C)NC(=O)CCC(F)(F)F [CPD3]
Increase in Atoh1+ hair cells above vehicle-only (1 mM in 10% POX338): 23.3% | Atoh1+ hair cells (1 mM in 10% POX338, 48 h culture): 72 ± 11 hair cells/100 μm | Change in Atoh1+ hair cells above vehicle-only (1 mM in 70% PEG400): no change | Atoh1+ hair cells (1 mM in 70% PEG400, 48 h culture): 54 ± 7 hair cells/100 μm | Increase in Atoh1+ hair cells above vehicle-only (7.2 mM in 10% POX338): 54.4% | Atoh1+ hair cells (7.2 mM in 10% POX338, 48 h culture): 90 ± 20 hair cells/100 μm | Increase in Atoh1+ hair cells above vehicle-only (7.2 mM in 70% PEG400): 60.1% | Atoh1+ hair cells (7.2 mM in 70% PEG400, 48 h culture): 87 ± 15 hair cells/100 μm | Supporting cell (Sox2+) counts (10% POX338 formulation, p < 0.001): significant decrease
